Test: Solubility of tranilast in various solvents with or without triisopropanolamine (Example 3)
Type: physicochemical
Design: key: ∘: complete dissolution of tranilast; x: no dissolution of tranilast
Conditions: tranilast 1 wt %
Method: For preparation of test solutions (blending corresponding to 1 mol of triisopropanolamine), tranilast (1 wt %) and triisopropanolamine (0.56 wt %) were added, and glycerol, propylene glycol, butylene glycol, salicylic acid ethylene glycol, diethyl sebacate and isopropyl myristate were used as a balance to achieve 100 wt %, whereby each test solution was prepared.
For preparation of comparison control (without triisopropanolamine), tranilast (1 wt %) was added, and propylene glycol, salicylic acid ethylene glycol, diethyl sebacate and isopropyl myristate were used as a balance to achieve 100 wt %, whereby each test solution was prepared.
Using the test solutions and comparative controls prepared above, the solubility of tranilast in various solvents with or without triisopropanolamine was examined.

## CC(O)CN(CC(C)O)CC(C)O.COc1ccc(/C=C/C(=O)Nc2ccccc2C(=O)O)cc1OC [1:1 salt with triisopropanolamine]
Butylene glycol
  solubility of tranilast in solvent: ∘
Diethyl sebacate
  solubility of tranilast in solvent: ∘
glycerol
  solubility of tranilast in solvent: ∘
Isopropyl myristate
  solubility of tranilast in solvent: x
Propylene glycol
  solubility of tranilast in solvent: ∘
Salicyl acid ethylene glycol
  solubility of tranilast in solvent: ∘
